Test: in vitro
Conditions: human, hela cells, % viability

SMILES | viability at 28.5 h, 10 µM (bulk resorufin, single well) [%] | viability at 28.5 h, 10 µM [%]
Cc1cccc(N2C(=O)NC(=O)/C(=C/NC3CCN(Cc4ccccc4)CC3)C2=O)c1 [CBK261827] | 92.2 | –
CN1CCN(CC(=O)Nc2ccc([N+](=O)[O-])cc2C(=O)c2ccccc2)CC1 [CBK265772] | – | 104
COc1ccc2[nH]c3c(c2c1)CCN1C(c2ccco2)N2CCC31CC2 (centres unmarked) [CBK284432] | – | 88
CC1CCc2c(C(=O)N3CCC4(C3)NC(=O)NC4=O)csc2C1 (centres unmarked) [CBK304290] | – | 76.8
COCC(=O)N1CCC2(C/C=C/C[C@H]3COCC[C@@H]3NC(=O)CNC2=O)CC1 [CBK292158] | – | 95.2
CC(C)n1c(=O)n(C(=O)c2ccco2)c2cccnc21 [CBK283856] | – | 102
CN1CCN(C(=O)CN(c2cccc([N+](=O)[O-])c2)S(=O)(=O)c2ccccc2)CC1 [CBK264121] | – | 87.6
Cn1cccc1C(=O)N1CCC(OCc2cnc(-c3ccc(S(C)(=O)=O)cc3)cn2)CC1 [CBK172007] | – | 106
Cc1ccc(-n2c(=O)[nH]cc(C(=O)Nc3ccc(C)c(F)c3)c2=O)cc1C [CBK287550] | – | 97.5
Nc1cc2c(cc1Cl)C(=O)NC2=O [CBK028783] | – | 101
COCCC(=O)NCc1ccccc1OC1CCNC1 (centres unmarked) [CBK024504T] | – | 136
CCOC(=O)c1cccc(NS(=O)(=O)c2ccc(-c3ccccc3)cc2)c1 [CBK034341] | – | 92.8
Cc1cc(C(=O)NCCCC2CCOC2)c2cccc(Cl)c2n1 (centres unmarked) [CBK282550] | – | 91.7
COc1ccc(C(C)NC(=O)CCn2ccc3ccncc32)cc1 (centres unmarked) [CBK284798] | – | 92.4
CC(=O)N1CCc2sccc2C1c1ccccc1NC(=O)C1CC1 (centres unmarked) [CBK282903] | – | 95
Cc1nc(Nc2cccc(C3CCCN3C(=O)COc3ccc(F)cc3)n2)sc1C (centres unmarked) [CBK286019] | – | 87
CCCN(C(=O)OC(C)(C)C)C1CCc2[nH]c(=O)c(C#N)cc2C1 (centres unmarked) [CBK023470] | – | 99.7
CC(C)(C)NC(=O)CN1C(=O)N2CCCN=C2c2ccc(Cl)cc21 [CBK284391] | – | 102
C(=N\N1CCOCC1)/c1cccs1 [CBK027942] | – | 96.9
C[S+]([O-])c1sc(Cl)c2c1C(=O)CCC2 (centres unmarked) [CBK005657] | – | 104
COc1ccc(CC(=O)NCC(=O)N2CCC3(CC2)NCCc2nc[nH]c23)cc1 [CBK287997] | – | 110
CN(C)S(=O)(=O)c1cccc(-c2cn3cccnc3n2)c1 [CBK267580] | – | 71.4
Cn1cc(-c2ncc(OCCn3cccc3)nc2N)cn1 [CBK145170] | – | 107

SMILES | viability at 28.5 h, 10 µM (bulk resorufin, single well) [%] | viability at 28.5 h, 10 µM [%]
CCc1onc(C)c1C(=O)NCC1CCCCN1CC(C)C (centres unmarked) [CBK305124] | – | 106
Cc1ccc(CN2CCNCC2CCO)o1 (centres unmarked) [CBK269844] | – | 92.3
CCc1c(C)nc2ccccc2c1SCCOC(=O)Nc1cccc([N+](=O)[O-])c1 [CBK155545T] | – | 106
Nc1ncc(-c2ccncc2)nc1NCCCN1CCOCC1 [CBK063631] | – | 98.9
O=C(Nc1ccc(F)c(C(F)(F)F)c1)c1cncc(-c2ccc(C(=O)N3CCOCC3)cc2)c1 [CBK160216] | – | 88.2
CC(C)(C)C(C#N)C(Oc1ccc(Cl)cc1)n1cncn1 (centres unmarked) [CBK023570] | – | 90.3
Cc1cccn2cc(CC(=O)NC3(C#N)CCCCC3)nc12 [CBK306252] | – | 95.2
CC1(C)CC(=O)c2cc(C(N)=O)c(=O)n(-c3ccc(Cl)cc3)c2C1 [CBK293936] | – | 88.8
CCOC(=O)c1sc2nc(C)ccc2c1N [CBK115377] | – | 96.5
COc1ccc(CCN2C(=O)NC(=O)/C(=C\c3c(C)[nH]c4ccccc34)C2=O)cc1OC [CBK265368] | 81.6 | –
Cc1cnn(C2CN(CC(=O)N3CCc4sccc4C3)C2)c1 [CBK305097] | – | 86.8
Cc1nn(C)c(Cl)c1S(=O)(=O)Nc1ccc2cc(Br)cnc2n1 [CBK073892] | – | 78.3
CCOCCCNC(=O)c1cccc(S(=O)(=O)N2CCCC2)c1 [CBK305934] | – | 104
COc1ccc(C(=O)Nc2c(Cl)ccc3nsnc23)cc1 [CBK270252] | – | 87.2
Cc1c(C(=O)Nc2sc3c(c2C(=O)NCc2cccnc2)CCC3)oc2ccccc12 [CBK269491] | – | 87.8
CCCC(=O)N1C2CCC1c1cnc3cc(-c4ccco4)nn3c1C2 (centres unmarked) [CBK284383] | – | 96.6
Cc1cccc(-c2nccnc2C2CCCN(C(=O)COc3ccc(F)cc3)C2)c1 (centres unmarked) [CBK286241] | – | 88.1
CC(C)C(NC(=O)C(C)(C)Oc1ccc(Cl)cc1)C(=O)O (centres unmarked) [CBK266138] | – | 94.5
OCCN(CCO)Cc1ccc(Cl)c(Cl)c1 [CBK261919] | – | 88.1
NC(=O)NC(Cc1c[nH]c2ccccc12)C(=O)O (centres unmarked) [CBK218895] | – | 105
COc1ccc(C(NC(=O)c2c(C)nc3sccn23)C2CC(O)C2)cn1 (centres unmarked) [CBK307330] | – | 95.3
Cc1nccn1Cc1ccccc1C(=O)NCCn1ccnc1 [CBK281580] | – | 84.7
CCOC(=O)c1cnn(C2CCCN(c3cccc(C#N)n3)C2)c1 (centres unmarked) [CBK306430] | – | 81.5

SMILES | viability at 28.5 h, 10 µM (bulk resorufin, single well) [%] | viability at 28.5 h, 10 µM [%]
Cc1ccc2c(c1)OC(C)(C)CC2NS(=O)(=O)N1CCN(C)CC1 (centres unmarked) [CBK307271] | – | 103
Cc1ccc2c(c1)CC(=O)NC21CCN(Cc2cccc(Br)c2)CC1 [CBK039392] | – | 94.7
CC(C)(C)OC(=O)NC1CCc2ccccc2N(Cc2ccccc2)C1=O (centres unmarked) [CBK013366] | – | 97.1
CC(CC(=O)NC1(C#Cc2nccs2)CCCCC1)n1ccnc1 (centres unmarked) [CBK284746] | – | 99.5
Cc1cc(NC(=O)Cn2cc(Br)cn2)no1 [CBK305706] | – | 102
OC(CN1CCNCC1)Cn1c2ccc(Cl)cc2c2cc(Cl)ccc21 (centres unmarked) [CBK094277G] | – | 68.1
COc1cc(CNC(=O)c2cccc(-c3ccc(OC4CCNCC4)cc3)n2)cc(OC)c1OC [CBK126550T] | – | 87.1
CN(C)S(=O)(=O)c1ccc(C(=O)C2=C(O)C(=O)N(CCN3CCOCC3)C2c2ccco2)cc1 (centres unmarked) [CBK264521] | – | 93.4
Cc1nn2c(=O)[nH]ncc2c1-c1ccccc1C(=O)N(C(C)C)C(C)C [CBK307043] | – | 109
Cc1ccc(C(C)(C)CC(C)NCc2ccc(Cl)cc2)o1 (centres unmarked) [CBK262873] | – | 95.8
CCCCN(CC)S(=O)(=O)c1ccc(-n2ncc(Cl)c(Cl)c2=O)cc1 [CBK305036] | – | 6.38
Oc1cc(C(F)(F)F)nc(N2CCCC2)n1 [CBK002389] | – | 105
Nc1nc(CSc2nnc(Cc3ccc([N+](=O)[O-])cc3)n2-c2ccccc2)cs1 [CBK267408] | – | 93.5
Cc1cc2ncn(CC(=O)NC3Cc4ccccc4C3)c2cc1C [CBK200261] | – | 97.3
O=C(Nc1ccncc1)c1c(O)n(Cc2ccccc2)c2ccccc2c1=O [CBK291222] | – | 92
Cc1ccnc(SCC(=O)c2cc(C)n(C3CC3)c2C)n1 [CBK304686] | – | 97.6
CCc1nc2ccc(C(=O)NC3=NN(c4ccccc4)C(=O)C3)cn2c1N(C)Cc1cccs1 [CBK145557] | – | 93
CC(C)(C)C1CCC(OC(=O)CCC(=O)Nc2nccs2)CC1 (centres unmarked) [CBK260890] | – | 96.9
CCN1CC2(CCN(Cc3c(F)cccc3F)CC2)c2ccccc21 [CBK136986] | – | 94
O=C(O)CSc1cccc2cccnc12 [CBK126918] | – | 95
Cc1ccc2nc(NC3=NC(CC(=O)O)C(=O)N3)nc(C)c2c1 (centres unmarked) [CBK218806] | – | 90.3
O=C(Nc1cccc(F)c1)c1cc2ccccc2cc1O [CBK016863] | – | 102
O=C(c1ccc(Nc2ccnc3cc(C(F)(F)F)ccc23)cc1)N1CCC(O)(c2cccc(C(F)(F)F)c2)CC1 [CBK012467] | – | 91.6

SMILES | viability at 28.5 h, 10 µM (bulk resorufin, single well) [%] | viability at 28.5 h, 10 µM [%]
CSCCC(NC(=O)c1ccccc1NC(=O)c1ccc(C)cc1)C(=O)O (centres unmarked) [CBK296067] | – | 94.1
CCn1cc(C(=O)N2CCn3cc(C(F)(F)F)nc3C2)c(C)n1 [CBK283916] | – | 93.8
CC(=O)NCCNc1ccc(C(=O)O)cc1[N+](=O)[O-] [CBK264184] | – | 87.8
COc1cc(Nc2cc(C)nc3ncnn23)ccc1N1CCCC1=O [CBK297725] | – | 102
CCCC/C=C/c1cn2ccnc2c(NCc2cc(OC)c(OC)c(OC)c2)n1 [CBK066331] | – | 93.1
Cc1cc2nc(-c3cc(NC(=O)/C=C/c4cccc([N+](=O)[O-])c4)ccc3O)oc2cc1C [CBK263438] | – | 94.1
CCN1C(=O)/C(=C\c2ccc(-c3cccc(C(=O)O)c3C)o2)C(=O)N(c2ccc(Cl)cc2)C1=S [CBK265270] | 99.9 | –
O=c1[nH]c(-c2cc(Cc3ccccc3Cl)ccc2O)nc2ccccc12 [CBK291220] | – | 98.3
CCc1c(C)sc(NC(=O)CSc2nnnn2C)c1C(=O)OC [CBK270312] | – | 90.7
Cc1cc(C2CCCCCN2S(=O)(=O)c2ccc3[nH]c(=O)[nH]c(=O)c3c2)no1 (centres unmarked) [CBK286404] | – | 94.2
CCCS(=O)(=O)N1CCCC(Cc2ccccc2C)(C(=O)OCC)C1 (centres unmarked) [CBK307502] | – | 84.9
CCN(CC(C)C#N)C(=O)c1nnn(-c2ccc3ncccc3c2)c1C (centres unmarked) [CBK305292] | – | 86.3
O=C(CSc1nc2cccnc2[nH]1)Nc1cccc(F)c1 [CBK270113] | – | 89.3
COc1cccc(C(=O)NNC(=O)c2ccc(F)cc2)c1 [CBK261705] | – | 106
O=C(O)C1CSC(c2ccc(-c3cccc(Cl)c3)o2)N1 (centres unmarked) [CBK286997] | – | 97.5
O=C(NS(=O)(=O)c1cccc(-c2nnco2)c1)C1C2C3CCC(C3)C12 (centres unmarked) [CBK306488] | – | 89
CCn1nc2c3ccccc3nc(C3CC3)n2c1=O [CBK284008] | – | 68.8
Cc1nc2[nH]c(=O)nc(N)c2nc1C [CBK025658] | – | 83.3
O=c1n(-c2cccc(C(F)(F)F)c2)ccn1S(=O)(=O)c1ccc(Cl)c(Cl)c1 [CBK106579] | – | 96.7
Cc1ccc2oc([C@H]3CCN(Cc4ccc(C(=O)O)cc4)C3)nc2c1 [CBK289386] | – | 100

Source: publication PMC12040169 (PLOS Biology, 2025)
